Measured values: patent publication US7115642B2, “Substituted diphenyl isoxazoles, pyrazoles and oxadiazoles useful for treating HCV infection” (priority 2003, dated 2006)

Test system: HCV replicon (5-2 Luc replicon-comprising cells)
Assay: HCV replicon assay (luciferase)
Format: cell-based, Hepatitis C virus
Settings: 5-2 Luc replicon cells, luciferase readout; read-out: Replicon IC50
Description: In one embodiment, the inhibitory activity of the compounds can be confirmed in a replicon assay that assesses the ability of a test compound to block or inhibit HCV replication in replicon cells. One example of a suitable replicon assay is the liver cell-line Huh 7-based replicon assay described in Lohmann et al., 1999, Science 285:110–113. A specific example of this replicon assay which utilizes luciferase translation is provided in the Examples Section. In one embodiment of this assay, the amount of test compound that yields a 50% reduction in translation as compared to a control cell (IC50) may be determined.
The inhibitory activity of certain exemplary compounds of the invention was confirmed using an HCV replicon assay. The HCV replicon can include such features as the HCV 5′ untranslated region including the HCV IRES, the HCV 3′ untranslated region, selected HCV genes encoding HCV polypeptides, selectable markers, and a reporter gene such as luciferase, GFP, etc. In the assay, actively dividing 5-2 Luc replicon-comprising cells (obtained from Ralf Bartenschlager; see Lohmann et al., 1999, Science 285:110–113) were seeded at a density of between about 5,000 and 7,500 cells/well onto 96 well plates (about 90 μl of cells per well) and incubated at 37° C. and 5% CO2 for 24 hours. Then, the test compound (in a volume of about 10 μl) was added to the wells at various concentrations and the cells were incubated for an additional 24 hours before luciferase assay. Briefly, the Bright-Glo reagent was diluted 1:1 with PBS and 100 μl of diluted reagent was added to each well. After 5 min of incubation at room temperature, luciferin emission was quantified with a luminometer. In this assay, the amount of test compound that yielded a 50% reduction in luciferase activity (IC50) was determined.
In TABLE 1, a value of “+” indicates an IC50 of 10 μM or less in the specified assay; a value of “−” indicates an IC50 of greater than 10 μM in the specified assay.

Row | SMILES | IC50 [µM]
1 | CN(C)C(=O)N1CCN(c2cccc(Cl)c2-c2cc(-c3cccc(NC(=O)C(Cl)Cl)c3)on2)CC1 [Compound 531] | < 10
2 | CC(C)(C)OC(=O)NC(Cc1ccccc1)C(=O)N1CCN(c2cccc(Cl)c2-c2cc(-c3cccc(NC(=O)C(Cl)Cl)c3)on2)CC1 (centres unmarked) [Compound 532] | < 10
3 | O=C(Nc1cccc(-c2cc(-c3c(Cl)cccc3N3CCN(C(=O)Cc4ccccc4)CC3)no2)c1)C(Cl)Cl [Compound 533] | < 10
4 | O=C(Nc1cccc(-c2cc(-c3c(Cl)cccc3N3CCN(C(=O)Nc4ccccc4)CC3)no2)c1)C(Cl)Cl [Compound 534] | < 10
5 | O=C(Nc1cccc(-c2cc(-c3c(Cl)cccc3N3CCN(C(=O)C4CC4)CC3)no2)c1)C(Cl)Cl [Compound 535] | < 10
6 | O=C(Nc1cccc(-c2cc(-c3c(Cl)cccc3N3CCN(c4ccc(C(F)(F)F)cn4)CC3)no2)c1)C(Cl)Cl [Compound 536] | < 10
7 | O=C(Nc1cccc(-c2cc(-c3c(Cl)cccc3N3CCN(c4ncccc4C(F)(F)F)CC3)no2)c1)C(Cl)Cl [Compound 538] | < 10
8 | O=C(Nc1cccc(-c2cc(-c3c(Cl)cccc3N3CCN(C(=O)c4c[nH]cn4)CC3)no2)c1)C(Cl)Cl [Compound 539] | < 10
9 | CN(C)S(=O)(=O)N1CCN(c2cccc(Cl)c2-c2cc(-c3cccc(NC(=O)C(Cl)Cl)c3)on2)CC1 [Compound 540] | < 10
10 | NC(Cc1ccccc1)C(=O)N1CCN(c2cccc(Cl)c2-c2cc(-c3cccc(NC(=O)C(Cl)Cl)c3)on2)CC1 (centres unmarked) [Compound 541] | > 10
11 | Nc1cccc(Cl)c1-c1cc(-c2cccc(NC(=O)C(Cl)Cl)c2)on1 [Compound 542] | < 10
12 | O=C(NC1CCN(c2cccc(Cl)c2-c2cc(-c3cccc(NC(=O)C(Cl)Cl)c3)on2)CC1)c1ccco1 [Compound 543] | < 10
13 | O=C(NC1CCN(c2cccc(Cl)c2-c2cc(-c3cccc(NC(=O)C(Cl)Cl)c3)on2)CC1)c1ccccn1 [Compound 544] | < 10
14 | O=C(NC1CCN(c2cccc(Cl)c2-c2cc(-c3cccc(NC(=O)C(Cl)Cl)c3)on2)CC1)c1cccnc1 [Compound 545] | < 10
15 | CS(=O)(=O)NC1CCN(c2cccc(Cl)c2-c2cc(-c3cccc(NC(=O)C(Cl)Cl)c3)on2)CC1 [Compound 546] | < 10
16 | O=C(Nc1cccc(-c2cc(-c3c(Cl)cccc3N3CCC(NS(=O)(=O)c4ccccc4)CC3)no2)c1)C(Cl)Cl [Compound 547] | < 10
17 | O=C(Nc1ccccc1)NC1CCN(c2cccc(Cl)c2-c2cc(-c3cccc(NC(=O)C(Cl)Cl)c3)on2)CC1 [Compound 548] | < 10
18 | O=C(Nc1cccc(-c2cc(-c3c(Cl)cccc3N3CCN(Cc4ccccc4)CC3)no2)c1)C(Cl)Cl [Compound 549] | < 10
19 | O=C(Nc1cccc(-c2cc(-c3c(Cl)cccc3N3CCN(c4cccnc4)CC3)no2)c1)C(Cl)Cl [Compound 550] | < 10
20 | O=C(Nc1cccc(-c2cc(-c3c(Cl)cccc3N3CCN(C(=O)c4ccncc4)CC3)no2)c1)C(Cl)Cl [Compound 552] | < 10
21 | O=C(Nc1cccc(-c2cc(-c3c(Cl)cccc3N3CCN(C(=O)c4cccnc4)CC3)no2)c1)C(Cl)Cl [Compound 553] | < 10
22 | O=C(Nc1cccc(-c2cc(-c3c(Cl)cccc3N3CCN(C(=O)c4cccs4)CC3)no2)c1)C(Cl)Cl [Compound 554] | < 10
23 | O=C(Nc1cccc(-c2cc(-c3c(Cl)cccc3N3CCN(C(=O)c4cc5ccccc5[nH]4)CC3)no2)c1)C(Cl)Cl [Compound 555] | < 10
24 | O=C(Nc1cccc(-c2cc(-c3c(Cl)cccc3N3CCN(C(=O)c4cnccn4)CC3)no2)c1)C(Cl)Cl [Compound 556] | < 10
25 | O=C(Nc1cccc(-c2cc(-c3c(Cl)cccc3N3CCN(C(=O)c4ccc(-c5ccccc5)cc4)CC3)no2)c1)C(Cl)Cl [Compound 557] | > 10

Row | SMILES | IC50 [µM]
26 | O=C(Nc1cccc(-c2cc(-c3c(Cl)cccc3N3CCN(C(=O)Cc4cccnc4)CC3)no2)c1)C(Cl)Cl [Compound 558] | < 10
27 | O=C(Nc1cccc(-c2cc(-c3c(Cl)cccc3Oc3cccnc3)no2)c1)C(Cl)Cl [Compound 559] | < 10
28 | CC(=O)Nc1cccc(Cl)c1-c1cc(-c2cccc(NC(=O)C(Cl)Cl)c2)on1 [Compound 560] | < 10
29 | CS(=O)(=O)Nc1cccc(Cl)c1-c1cc(-c2cccc(NC(=O)C(Cl)Cl)c2)on1 [Compound 561] | < 10
30 | O=C(Nc1cccc(Cl)c1-c1cc(-c2cccc(NC(=O)C(Cl)Cl)c2)on1)c1cccnc1 [Compound 562] | < 10
31 | CN(C(=O)C(Cl)Cl)c1cccc(-c2cc(-c3c(Cl)cccc3N=[N+]=[N-])no2)c1 [Compound 563] | < 10
32 | CN(C(=O)C(Cl)Cl)c1cccc(-c2cc(-c3c(N)cccc3Cl)no2)c1 [Compound 564] | > 10
33 | CC(=O)NC1CCN(c2cccc(Cl)c2-c2cc(-c3cccc(NC(=O)C(Cl)Cl)c3)on2)C1 (centres unmarked) [Compound 565] | < 10
34 | O=C(Nc1cccc(-c2cc(-c3c(Cl)cccc3N3CCN(C(=O)C(F)(F)F)CC3)no2)c1)C(Cl)Cl [Compound 566] | < 10
35 | O=C(Nc1cccc(-c2cc(-c3c(Cl)cccc3N3CCN(S(=O)(=O)C(F)(F)F)CC3)no2)c1)C(Cl)Cl [Compound 567] | < 10
36 | CC(C)(C)OC(=O)N1CCC(Oc2cccc(Cl)c2-c2cc(-c3cccc(NC(=O)C(Cl)Cl)c3)on2)CC1 [Compound 568] | < 10
37 | O=C(Nc1cccc(-c2cc(-c3c(Cl)cccc3OC3CCNCC3)no2)c1)C(Cl)Cl [Compound 569] | < 10
38 | CC(C)(C)OC(=O)N1CCCC(Oc2cccc(Cl)c2-c2cc(-c3cccc(NC(=O)C(Cl)Cl)c3)on2)C1 (centres unmarked) [Compound 570] | < 10
39 | O=C(Nc1cccc(-c2cc(-c3c(Cl)cccc3OC3CCCNC3)no2)c1)C(Cl)Cl (centres unmarked) [Compound 571] | < 10
40 | O=C(NC1CCN(c2cccc(Cl)c2-c2cc(-c3cccc(NC(=O)C(Cl)Cl)c3)on2)C1)c1ccccn1 (centres unmarked) [Compound 572] | < 10
41 | CS(=O)(=O)NC1CCN(c2cccc(Cl)c2-c2cc(-c3cccc(NC(=O)C(Cl)Cl)c3)on2)C1 (centres unmarked) [Compound 573] | < 10
42 | CN(C)C(=O)NC1CCN(c2cccc(Cl)c2-c2cc(-c3cccc(NC(=O)C(Cl)Cl)c3)on2)C1 (centres unmarked) [Compound 574] | < 10
43 | CCNC(=O)NC1CCN(c2cccc(Cl)c2-c2cc(-c3cccc(NC(=O)C(Cl)Cl)c3)on2)C1 (centres unmarked) [Compound 575] | < 10
44 | CS(=O)(=O)N1CCC(Oc2cccc(Cl)c2-c2cc(-c3cccc(NC(=O)C(Cl)Cl)c3)on2)CC1 [Compound 576] | < 10
45 | CC(=O)N1CCC(Oc2cccc(Cl)c2-c2cc(-c3cccc(NC(=O)C(Cl)Cl)c3)on2)CC1 [Compound 577] | < 10
46 | CCNC(=O)N1CCC(Oc2cccc(Cl)c2-c2cc(-c3cccc(NC(=O)C(Cl)Cl)c3)on2)CC1 [Compound 578] | < 10
47 | CCNC(=O)NC1CCN(c2cccc(Cl)c2-c2cc(-c3cccc(NC(=O)C(Cl)Cl)c3)on2)CC1 [Compound 579] | < 10
48 | CN(c1cccc(Cl)c1-c1cc(-c2cccc(NC(=O)C(Cl)Cl)c2)on1)C1CCN(C(=O)OC(C)(C)C)CC1 [Compound 580] | < 10
49 | CN(c1cccc(Cl)c1-c1cc(-c2cccc(NC(=O)C(Cl)Cl)c2)on1)C1CCNCC1 [Compound 581] | < 10
50 | CC(=O)N1CCC(N(C)c2cccc(Cl)c2-c2cc(-c3cccc(NC(=O)C(Cl)Cl)c3)on2)CC1 [Compound 582] | < 10
